Data from PubChem BioAssay AID2060325 (Molecular Pharmacology Branch, DTP, NCI, 2025).

System: SK-OV-3 multi-cell spheroids, viability
Assay: Anticancer human tumor SK-OV-3 cell line growth inhibition [IpAb];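 on viability, T/C: viability read after seven days of drug exposure; percent of DMSO vehicle control luminescence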
Conditions: for IC50: curve of first compound; for viability, T/C: stronger effect = lower value
Outline: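 Multi-cell spheroids of 60% tumour cells, 25% HUVEC and 15% MSC in ultra-low-attachment U-bottom wells, treated with agents combined with ipatasertib or abemaciclib. Half-log ranges top out near clinical Cmax, or 10 microM when Cmax is unknown.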

[1] = second compound 0.1 µM, first compound 0.0316 µM
[2] = second compound 0.1 µM, first compound 0.1 µM
[3] = second compound 0.1 µM, first compound 0.316 µM
[4] = second compound 0.1 µM, first compound 1 µM
[5] = second compound 0.1 µM, first compound 3.16 µM
[6] = second compound 0.1 µM, first compound 10 µM
[7] = second compound 0.316 µM, first compound 0.0316 µM
[8] = second compound 0.316 µM, first compound 0.1 µM
[9] = second compound 0.316 µM, first compound 0.316 µM
[10] = second compound 0.316 µM, first compound 1 µM
[11] = second compound 0.316 µM, first compound 3.16 µM
[12] = second compound 0.316 µM, first compound 10 µM
[13] = second compound 1 µM, first compound 0.0316 µM
[14] = second compound 1 µM, first compound 0.1 µM
[15] = second compound 1 µM, first compound 0.316 µM
[16] = second compound 1 µM, first compound 1 µM
[17] = second compound 1 µM, first compound 3.16 µM
[18] = second compound 1 µM, first compound 10 µM

## Cn1ncc(Cl)c1-c1cc(C(=O)NC(CN)Cc2cccc(F)c2)sc1Cl (stereo not given) + CC(C)NCC(C(=O)N1CCN(c2ncnc3c2C(C)CC3O)CC1)c1ccc(Cl)cc1
Second compound 0.1 µM
  IC50: 0.0588 µM
Second compound 0.316 µM
  IC50: < 0.0316 µM
Second compound 1 µM
  IC50: < 0.0316 µM
Second compound 3.16 µM
  IC50: < 0.0316 µM
Second compound 10 µM
  IC50: < 0.0316 µM
[1]
  viability, T/C: 62.6%
[2]
  viability, T/C: 38.1%
[3]
  viability, T/C: 25%
[4]
  viability, T/C: 16.4%
[5]
  viability, T/C: 8.41%
[6]
  viability, T/C: 0.21%
[7]
  viability, T/C: 36.4%
[8]
  viability, T/C: 28.2%
[9]
  viability, T/C: 19.7%
[10]
  viability, T/C: 13.8%
[11]
  viability, T/C: 8.71%
[12]
  viability, T/C: 0.38%
[13]
  viability, T/C: 20.7%
[14]
  viability, T/C: 18.3%
[15]
  viability, T/C: 17.6%
[16]
  viability, T/C: 13.6%
[17]
  viability, T/C: 8.68%
[18]
  viability, T/C: 0.2%
Second compound 3.16 µM, first compound 0.0316 µM
  viability, T/C: 15.7%
Second compound 3.16 µM, first compound 0.1 µM
  viability, T/C: 15.9%
Second compound 3.16 µM, first compound 0.316 µM
  viability, T/C: 15.9%
Second compound 3.16 µM, first compound 1 µM
  viability, T/C: 12.9%
Second compound 3.16 µM, first compound 3.16 µM
  viability, T/C: 6.61%
Second compound 3.16 µM, first compound 10 µM
  viability, T/C: 0.36%
Second compound 10 µM, first compound 0.0316 µM
  viability, T/C: 10.6%
Second compound 10 µM, first compound 0.1 µM
  viability, T/C: 11.4%
Second compound 10 µM, first compound 0.316 µM
  viability, T/C: 9.32%
Second compound 10 µM, first compound 1 µM
  viability, T/C: 6.87%
Second compound 10 µM, first compound 3.16 µM
  viability, T/C: 4.93%
Second compound 10 µM, first compound 10 µM
  viability, T/C: 0.28%

## C=CCn1c(=O)c2cnc(Nc3ccc(N4CCN(C)CC4)cc3)nc2n1-c1cccc(C(C)(C)O)n1 + CCN1CCN(Cc2ccc(Nc3ncc(F)c(-c4cc(F)c5nc(C)n(C(C)C)c5c4)n3)nc2)CC1
Second compound 0.01 µM
  IC50: 0.09 µM
Second compound 0.0316 µM
  IC50: 0.0559 µM
Second compound 0.1 µM
  IC50: < 0.0316 µM
Second compound 0.316 µM
  IC50: 0.0393 µM
Second compound 1 µM
  IC50: < 0.0316 µM
Second compound 0.01 µM, first compound 0.0316 µM
  viability, T/C: 83.9%
Second compound 0.01 µM, first compound 0.1 µM
  viability, T/C: 46.6%
Second compound 0.01 µM, first compound 0.316 µM
  viability, T/C: 13.1%
Second compound 0.01 µM, first compound 1 µM
  viability, T/C: 7.77%
Second compound 0.01 µM, first compound 3.16 µM
  viability, T/C: 4.03%
Second compound 0.01 µM, first compound 10 µM
  viability, T/C: 6.24%
Second compound 0.0316 µM, first compound 0.0316 µM
  viability, T/C: 63.7%
Second compound 0.0316 µM, first compound 0.1 µM
  viability, T/C: 36%
Second compound 0.0316 µM, first compound 0.316 µM
  viability, T/C: 12.1%
Second compound 0.0316 µM, first compound 1 µM
  viability, T/C: 8.26%
Second compound 0.0316 µM, first compound 3.16 µM
  viability, T/C: 6.84%
Second compound 0.0316 µM, first compound 10 µM
  viability, T/C: 6.66%
[1]
  viability, T/C: 49.2%
[2]
  viability, T/C: 36.3%
[3]
  viability, T/C: 14.4%
[4]
  viability, T/C: 9.93%
[5]
  viability, T/C: 5.86%
[6]
  viability, T/C: 8.17%
[7]
  viability, T/C: 53.5%
[8]
  viability, T/C: 34.8%
[9]
  viability, T/C: 17.9%
[10]
  viability, T/C: 15%
[11]
  viability, T/C: 10.3%
[12]
  viability, T/C: 10.5%
[13]
  viability, T/C: 36.4%
[14]
  viability, T/C: 29.3%
[15]
  viability, T/C: 19.7%
[16]
  viability, T/C: 16.9%
[17]
  viability, T/C: 17.4%
[18]
  viability, T/C: 15.6%

## Cn1cnc2c(F)c(Nc3ccc(Br)cc3Cl)c(C(=O)NOCCO)cc21 + CCN1CCN(Cc2ccc(Nc3ncc(F)c(-c4cc(F)c5nc(C)n(C(C)C)c5c4)n3)nc2)CC1
Second compound 0.01 µM
  IC50: 1.67 µM
Second compound 0.0316 µM
  IC50: 1.18 µM
Second compound 0.1 µM
  IC50: 0.39 µM
Second compound 0.316 µM
  IC50: 0.167 µM
Second compound 1 µM
  IC50: < 0.00949 µM
Second compound 0.01 µM, first compound 0.00949 µM
  viability, T/C: 90.9%
Second compound 0.01 µM, first compound 0.03 µM
  viability, T/C: 95.4%
Second compound 0.01 µM, first compound 0.0949 µM
  viability, T/C: 98%
Second compound 0.01 µM, first compound 0.3 µM
  viability, T/C: 96%
Second compound 0.01 µM, first compound 0.949 µM
  viability, T/C: 65.5%
Second compound 0.01 µM, first compound 3 µM
  viability, T/C: 33.9%
Second compound 0.0316 µM, first compound 0.00949 µM
  viability, T/C: 80.6%
Second compound 0.0316 µM, first compound 0.03 µM
  viability, T/C: 79.5%
Second compound 0.0316 µM, first compound 0.0949 µM
  viability, T/C: 84.1%
Second compound 0.0316 µM, first compound 0.3 µM
  viability, T/C: 75.1%
Second compound 0.0316 µM, first compound 0.949 µM
  viability, T/C: 55.5%
Second compound 0.0316 µM, first compound 3 µM
  viability, T/C: 27.1%
Second compound 0.1 µM, first compound 0.00949 µM
  viability, T/C: 59.8%
Second compound 0.1 µM, first compound 0.03 µM
  viability, T/C: 59.1%
Second compound 0.1 µM, first compound 0.0949 µM
  viability, T/C: 66.8%
Second compound 0.1 µM, first compound 0.3 µM
  viability, T/C: 51.2%
Second compound 0.1 µM, first compound 0.949 µM
  viability, T/C: 38.6%
Second compound 0.1 µM, first compound 3 µM
  viability, T/C: 28.2%
Second compound 0.316 µM, first compound 0.00949 µM
  viability, T/C: 61.7%
Second compound 0.316 µM, first compound 0.03 µM
  viability, T/C: 63.7%
Second compound 0.316 µM, first compound 0.0949 µM
  viability, T/C: 49.1%
Second compound 0.316 µM, first compound 0.3 µM
  viability, T/C: 47.4%
Second compound 0.316 µM, first compound 0.949 µM
  viability, T/C: 38.8%
Second compound 0.316 µM, first compound 3 µM
  viability, T/C: 28.4%
Second compound 1 µM, first compound 0.00949 µM
  viability, T/C: 41.8%
Second compound 1 µM, first compound 0.03 µM
  viability, T/C: 50.6%
Second compound 1 µM, first compound 0.0949 µM
  viability, T/C: 50.8%
Second compound 1 µM, first compound 0.3 µM
  viability, T/C: 44.6%
Second compound 1 µM, first compound 0.949 µM
  viability, T/C: 35.9%
Second compound 1 µM, first compound 3 µM
  viability, T/C: 24.2%
